Reference: US9820951B2, “Pulmonary disease treatment and diagnosis based on Arhgef1” (NATIONAL JEWISH HEALTH, A NON-PROFIT ORGANIZATION, priority 2011, dated 2017)

What was measured:
MMP9 = MMP9 production by human alveolar macrophages cultured on fibronectin (gelatin zymography); format: cell-based; settings: PTA2 1.25, 6.25 and 25 μM, dose-dependent
Source text: FIG. 14. Human alveolar macrophages produce TXB2 when cultured on fibronectin and thromboxane receptor signaling is required for MMP9 production. A, TXB2 production measured in conditioned media from human macrophages cultured on fibronectin (closed bars) or plastic (open bars) at the indicated cellular concentrations. B, TXB2 measured in conditioned media from macrophages cultured at 0.125×10^6 cells/ml on either plastic (ctl) or FN from four individuals. The data represent the means±S.E. C, gelatin zymogram of conditioned media from cells cultured as indicated and in the presence of increasing doses of the thromboxane receptor antagonist PTA2 (at 1.25, 6.25, and 25 μM, respectively). Below the zymogram is quantitation of MMP9 activity by densitometric analysis.
Tissue-culture 96-well plates (Costar high binding catalogue number 3590) were coated with 10 μg/ml of murine fibronectin (Molecular Innovations, Nori, Minn.; catalogue number MFBN) or human fibronectin (Molecular Innovations; catalogue number HFBN) in DPBS without Ca^2+ or Mg^2+ (Mediatech, Inc., Manassas, Va.) for 2 h at room temperature. […] PGE2 and TXB2 were measured in conditioned medium by ELISA according to the manufacturer's instructions (ElisaTech, Aurora, Colo.). […]
For other human studies, we quantitated MMP9 by ELISA in conditioned medium (ELISA TECH, Aurora, Colo.). […]

MMP2 = MMP2 activity by gelatin zymography in conditioned media of mouse peritoneal macrophages cultured on fibronectin; format: cell-based; settings: wild type and Arhgef1−/− macrophages; 20 mM aspirin or 28 μM L-655,240
Method: FIG. 12. Thromboxane receptor signaling is necessary for fibronectin-induced MMP9 production by macrophages and is attenuated by Arhgef1. A, representative gelatin zymograms of conditioned media from macrophages cultured on plastic (ctl) or FN and treated with 1.56 or 6.25 μM of the thromboxane receptor antagonist PTA2. Wild type (+/+) and Arhgef1^−/− (−/−) samples from separate zymograms are shown. B, quantitation of MMP9 activity as determined by densitometric analysis of zymograms in A. The results are representative of two independent experiments. C, representative zymograms from conditioned media from macrophages cultured on plastic or fibronectin and treated with 28 μM of the thromboxane receptor antagonist L-655,240. D, quantitation of MMP9 activity as determined by densitometric analysis of zymograms in C. The results are compiled from two independent experiments with n=4 for both wild type (open bars) and Arhgef1^−/− (black bars) samples. […] E, MMP2 activity was quantitated in conditioned media as previously described for MMP9. […] The data represent the means±S.E. F, MMP9 activity was quantitated as previously described and normalized to a percentage of fibronectin response for each genotype. […] G, relative Mmp9 expression was measured by qPCR in macrophages cultured on fibronectin in the presence of the thromboxane receptor agonist (U-46619, 10 nM), S1P (40 nM), or LPA (10 μM). […]

SMILES | inhibition of MMP9 production (MMP9) | MMP2 activity (MMP2)
CCCCC[C@@H](O)/C=C/[C@H]1C[C@H]2C[C@@H]([C@@H]1C/C=C\CCCC(=O)O)C2(C)C (relative stereo) [PTXA2, (18-(1alpha,2beta(Z),3alpha(1E,3S*),5alpha))-7-(3-(3-Hydroxy-1-octenyl)-6,6-dimethylbicyclo(3.1.1)hept-2-yl)-5-heptenoic acid] | ~90% | 
CC(=O)Oc1ccccc1C(=O)O [aspirin] |  | not affected
